Key:
[1] = biological target: T1, olfactory receptor OR5K1 (Homo sapiens, UniProt Q8NHB7); assay: Antagonistic activity against the response of OR5K1 to Furaneol (luciferase reporter gene assay, HEK293 cells); assay type: cell-based; conditions: Furaneol 3 mM, test substance 100 μM; OR5K1-expressing HEK293 cells; read-out: rate of inhibition of the response of OR5K1 to Furaneol
T1 construct: Flag-Rho tag (N); expressed in transfected cells; host or cells: HEK293
T1 sequence (Q8NHB7 1-308): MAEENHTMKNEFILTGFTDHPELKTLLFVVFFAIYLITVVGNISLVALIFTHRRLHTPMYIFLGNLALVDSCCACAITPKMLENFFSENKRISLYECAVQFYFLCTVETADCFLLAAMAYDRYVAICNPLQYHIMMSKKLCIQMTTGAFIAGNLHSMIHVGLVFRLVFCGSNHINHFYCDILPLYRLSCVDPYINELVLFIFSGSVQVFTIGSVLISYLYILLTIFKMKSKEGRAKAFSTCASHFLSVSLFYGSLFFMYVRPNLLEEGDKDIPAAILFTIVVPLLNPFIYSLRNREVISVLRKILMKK
Procedure: 84 types of test substances were examined for their antagonistic activity against the response of the olfactory receptor OR5K1 to Furaneol.
Furaneol (3 mM) and each test substance (100 μM) were added to HEK293 cells allowed to express the olfactory receptor OR5K1 by the same procedures as in Example 2. The response of the olfactory receptor was measured to evaluate change in receptor response caused by the addition of the test substance.
The rate of inhibition of the receptor response by the test substance was calculated as follows: firefly luciferase-derived luminescence intensity (Y) in the olfactory receptor OR5K1-expressing cells without Furaneol stimulation was subtracted from firefly luciferase-derived luminescence intensity (X) induced by stimulation with Furaneol alone to determine receptor activity (X−Y) based on the stimulation with Furaneol alone. Likewise, the luminescence intensity (Y) in the cells without Furaneol stimulation was subtracted from luminescence intensity (Z) induced by stimulation with the mixture of Furaneol and the test substance to determine receptor activity (Z−Y) in the presence of the test substance. The rate of reduction in the receptor activity (Z−Y) in the presence of the test substance with respect to the receptor activity (X−Y) based on the stimulation with Furaneol alone was calculated according to an expression shown below to determine the rate of inhibition of the receptor response by the test substance. In this assay, a plurality of independent duplicate experiments were performed. An average of the experiments in each run was obtained. Rate of inhibition (%)={1−(Z−Y)/(X−Y)}×100

[2] = biological target: T1, olfactory receptor OR5K1; assay: Luciferase reporter gene assay: response of olfactory receptors expressed on HEK293 cells to Furaneol; assay type: cell-based
Procedure: HEK293 cells expressing each of 400 types of human olfactory receptors were prepared. Each reaction solution having the composition shown in Table 1 was prepared, then left standing for 15 minutes in a clean bench, and then added to each well of a 96-well plate (Becton, Dickinson and Company). Subsequently, the HEK293 cells (3×10^5 cells/cm^2) were inoculated thereto at 100 μL/well and then cultured at 37° C. for 24 hours in an incubator kept at 5% CO2.
The olfactory receptors expressed on the HEK293 cells are conjugated with intracellular Gαs to activate adenylate cyclase, thereby increasing intracellular cAMP levels. In this study, their responses to Furaneol were measured using luciferase reporter gene assay which involved monitoring increase in intracellular cAMP level as luminescence intensity derived from a firefly luciferase gene (fluc2P-CRE-hygro). […]
A medium was removed from the cultures prepared in the preceding paragraph 3). […] The luciferase activity was measured using Dual-Glo™ luciferase assay system (Promega Corp.) according to the instruction manual of the product. Firefly luciferase-derived luminescence intensity induced by stimulation with Furaneol was divided by luminescence intensity in the cells without Furaneol stimulation to calculate a value as fold increase, which was in turn used as an index for response intensity. […]

Structure (SMILES) | inhibition at 100 µM [1] | concentration dependence of OR5K1 response to Furaneol ([2]; Furaneol 0, 3, 10, 30, 100, 300, 1000 and 3000 μM, OR5K1 with human RTP1S on HEK293 cells, FIG. 2) | response of olfactory receptor to Furaneol (fold increase of luminescence) ([2]; Furaneol 3 mM, 400 types of human olfactory receptors screened in HEK293 cells, FIG. 1)
CC(=O)O[C@]1(C)CC[C@@]23C[C@@H]1C(C)(C)[C@@H]2CC[C@H]3C [Cedryl acetate] | ≥ 50% |  | 
CC(C)=CCCC(C)=CC=O [Citral] | ≥ 75% |  | 
CC1=C(O)C(=O)C(C)O1 (centres unmarked) [Furaneol, 2,5-dimethyl-4-hydroxy-3(2H)-furanone] |  | concentration-dependent response | only the olfactory receptor OR5K1 exhibited a response
CC(=O)C1(C)CC2=C(CCCC2(C)C)CC1C (centres unmarked) [Iso E Super, 7-Acetyl-1,2,3,4,5,6,7,8-octahydro-1,1,6,7-tetramethyl-naphthalene] | ≥ 75% |  | 
CC1(CO)CC1CC1CC2CC2(C)C1(C)C [Javanol(R), (1-Methyl-2-(1,2,2-trimethylbicyclo[3.1.0]-hex-3-ylmethyl)cyclopropyl)methanol] | ≥ 40% |  | 
CC1C/C=C/CCCCCCCCCC(=O)C1 [Muscenone(R) Delta, (5E)-3-Methylcyclopentadec-5-en-1-one] | ≥ 75% |  | 
CC(=O)c1cc2c(cc1C)C(C)(C)C(C)CC2(C)C [Tonalid(R), 1-(5,6,7,8-tetrahydro-3,5,5,6,8,8-hexamethyl-2-naphthalenyl)-ethanone] | ≥ 75% |  | 
CC(=O)C1=C(C)C2CC3(C1)C(C)CCC3C2(C)C (centres unmarked) [acetylcedrene, 1-(2,3,4,7,8,8a-hexahydro-3,6,8,8-tetramethyl-1H-3a,7-methanoazulen-5-yl)-ethanone] | ≥ 75% |  | 
CCC(=CCC1CC=C(C)C1(C)C)CO (centres unmarked) [bangalol, 2-Ethyl-4-(2,2,3-trimethyl-3-cyclopenten-1-yl)-2-buten-1-ol] | ≥ 50% |  | 
CC(C)(C)c1ccc(CCC=O)cc1 [bourgeonal, 3-(4-tert-Butylphenyl)propanal] | ≥ 75% |  | 
CC1COCc2cc3c(cc21)C(C)(C)C(C)C3(C)C (centres unmarked) [galaxolide, 4,6,6,7,8,8-Hexamethyl-1,3,4,6,7,8-hexahydrocyclopenta[g]isochromene] | ≥ 75% |  | 
CC(=O)/C(C)=C/C1C(C)=CCCC1(C)C (centres unmarked) [methyl ionone-G, (E)-3-Methyl-4-(2,6,6-trimethylcyclohex-2-en-1-yl)but-3-en-2-one] | ≥ 75% |  | 
Cc1ccc(C(C)C)c(O)c1 [thymol, 5-Methyl-2-(1-methylethyl)-phenol] | ≥ 75% |  | 

From patent publication US9274102B2, “Method of screening for an inhibitor of odor cause by furaneol” (Kao Corporation, priority 2013, dated 2016)
